Test [1] deals with S. aureus ATCC 25923. In kind it is cell-based, Staphylococcus aureus. The procedure:
(§1) Natural extracts derived from hemocytes and hemolymph of P. clarkii were liophylized and then resuspended in ultrapure water to obtain a protein content of 22 µg/mL and 1400 µg/mL, respectively. MIC values of extracts were determined by a micro-method previously described based on serial dilution 1:2 of the extracts, using Mueller Hinton II medium and Sabouraud medium (for C. albicans), in 96-well microplates and starting from concentrations of 50% v/v to 1.5 % v/v in a final volume equal to 100 μL. Thus, 10 μL of microbial suspension (5 × 10^6 CFU/ mL) obtained from a bacterial culture grown at 37 °C for 24 h on Tryptic Soy Agar (TSA) in 5 mL of 0.9% NaCl, with a turbidity equivalent to a 0.5 McFarland standard was added to 96-well plates and incubated at 37 °C for 24 h. MICs of extracts were determined by a microplate reader (GloMax®-Multi Detection System, Promega Italia s.r.l, Milan, Italy) with the lowest concentration of the sample whose optical density (OD) at 570 nm was similar to negative control wells (broth without inoculum to control the sterility of medium). Moreover, a positive growth control (bacterial tested strain in the medium without extracts to compare the growth of cells with samples) and a sample control (extract solutions without inoculum to control the absorbance of the samples at different concentrations) were also added.
(§2) The same methods and media were used to determine the antimicrobial activity of synthetic peptides #3, #5, #7, and #14, and derivatives. They were dissolved in ultrapure water, or 1 mL ultrapure water with 40 μL NH4OH (28% v/v) in the case of peptide #14, to obtain a stock solution of 5 mg/mL. Working solutions of 250 μg/mL were prepared for each peptide in MHII or Sabouraud, and test solutions in a 96 wells plate were obtained by diluting in a series 1:2. Each assay was performed in triplicate.

The test system of test [2] is P. aeruginosa ATCC 15442. In kind it is cell-based, Pseudomonas aeruginosa. On the procedure: as §1, §2
Test [3] has as its system C. albicans ATCC 10231. Type of test: cell-based, Candida albicans. The procedure:
as §1, §2

For test [4], the system named is C. albicans ATCC 10231. As to the kind of experiment: Cell membrane integrity, propidium iodide uptake. In kind it is cell-based, Candida albicans. Particulars: 25, 20 and 15 μg/mL (sub-MIC), 24 h. The procedure:
The cell membrane integrity of C. albicans ATCC 10231 after exposure to peptide #14d was evaluated using the PI uptake assay, as described by Bezerra et al., with some modifications. C. albicans ATCC 10231 was incubated with the peptide #14d in the same conditions reported for inhibition of biofilm formation. Thus, 20 μL of propidium iodide (PI, Molecular probes^TM, Fisher Scientific, Erembodegem, Belgium) was added to each well and the plate was incubated in the dark for 30 min at 25 °C. Then, the plate was washed three times with 0.9% NaCl and observed with an Olympus FV1200 confocal microscope with TIRF (Total internal reflection fluorescence) integrated, using an excitation wavelength of 535 nm and emission wavelength of 617 nm.

The subject of test [5] is C. albicans ATCC 10231 biofilm. Put plainly: Scanning electron microscopy of biofilm morphology. In kind it is cell-based, Candida albicans. The conditions noted are these: 25 μg/mL (sub-MIC), 24 h, versus control. On the procedure: The morphological changes in C. albicans ATCC 10231 cells were assessed by scanning electron microscopy (SEM, Phenom ProX, PhenomWorld, Eindhoven, Netherlands), using the method described by Bezerra et al., with some modifications. Biofilms were fixed with a 4% formaldehyde solution in DPBS for 30 min at 37 °C. Then, the biofilms were washed three times with sodium phosphate buffer (pH = 7.4). Next, samples were dehydrated with increased ethanol concentrations (30%, 50%, 70%, and 100%) for 10 min at 24 °C. Lastly, the final dehydration was conducted with […] (HDMS) for 10 min, removing the solvent at the end of washing to allow the samples to air dry. The samples were analyzed by scanning electron microscopy (SEM, Phenom ProX, PhenomWorld).

Test [6] has as its system C. albicans.
Test [7] concerns E. faecalis ATCC 29212. In kind it is cell-based, Enterococcus faecalis. On the procedure:
as §1, §2

Test [8] concerns E. coli ATCC 25922. In kind it is cell-based, Escherichia coli. The procedure:
as §1, §2

Test [9] has as its system C. albicans ATCC 10231. In kind it is cell-based, Candida albicans. The conditions noted are these: ATCC 10231, 24 h. On the procedure: Sub-MIC concentrations were tested for their ability to interfere with the growth as sessile community of S. aureus ATCC 25923, P. aeruginosa ATCC 15442, and C. albicans ATCC 10231, as previously described. Bacterial strains or the fungal strain were incubated in test tubes with TSB or Sabouraud (5 mL) containing 2% w/v glucose at 37 °C for 24 h. After that, small aliquots (2.5 μL) from the diluted microbial suspensions whose turbidity was equivalent to a 0.5 McFarland standard were added to each well of a polystyrene sterile flat-bottom 96-well plate filled with TSB or BS (200 μL) with 2% w/v glucose. Sub-MIC concentration values of amino acidic fraction from hemocytes and hemolymph of P. clarkii or of chemically synthesized peptides were directly added to the wells and the plates were incubated at 37 °C for 24 h. After biofilm growth, samples were washed twice with sterile 0.9% NaCl and stained with 200 μL of 0.1% w/v crystal violet solution for 15 min at 37 °C [58]. Excess solution was discarded, and the plate was washed twice using tap water. […] Last, the absorbance was determined at 600 nm using a microplate reader (GloMax®-Multi Detection System, Promega Italia s.r.l, Milan, Italy). […] The percentage of inhibition was calculated through the formula:% Inhibition = [(OD growth − OD sample)/OD growth control] × 100. […]

Test [10] deals with C. albicans ATCC 10231. Put plainly: Overproduction of reactive oxygen species (DCFH-DA). In kind it is cell-based, Candida albicans. The conditions noted are these: 25 and 20 μg/mL. On the procedure: The ROS overproduction in C. albicans ATCC 10231 due to peptide #14d was evaluated using the method described by Bezerra et al., with some modifications. C. albicans ATCC 10231 was incubated with peptide #14d in the same conditions reported for biofilm inhibition formation. Then, the formed biofilm was washed with 0.9% NaCl three times to remove the Sabouraud liquid medium. After this procedure, 20 μL of 2′,7′ dichlorofluorescein diacetate (DCFH-DA) was added to each well and the plate was incubated in the dark for 30 min at 25 °C. DCFH-DA is oxidized by ROS to dichlorofluorescein, which emits green fluorescence. Lastly, the biofilms were washed with 0.9% NaCl three times and observed with a fluorescence microscope with an excitation wavelength of 488 nm and emission wavelength of 525 nm.

Test [11] has as its system selected strains. Put plainly: EC50 under low-salt conditions (viable count). In kind it is cell-based. The conditions noted are these: 10 mM sodium phosphate buffer, 100-0.15 μg/mL, 3 h 37 °C, CFU count, maximum tested 100 μg/mL. The procedure:
The antimicrobial activity of the chemically synthesized peptides #3, #5, #7, and #14, and their derivatives, against selected strains were evaluated in terms of peptide half-maximal effective concentration to inhibit 50% of the viable bacteria (EC50), as reported by other authors. Briefly, 5 × 10^4 CFU per well of tested microorganisms were incubated with peptide concentrations from 100 to 0.15 μg/mL (1:2 serial dilutions) for 3 h at 37 °C in 100 μL of 10 mM sterile sodium phosphate buffer. After 3 h, 10 μL of each dilution was spotted in triplicate on Tryptic Soy Agar plates and incubated at 37 °C for 24 h. After the incubation time, the number of colonies from any sample were counted and compared with the CFU viable count of the none-treated growth control.

The mark [12] stands for this setting: synthetic peptides, S. aureus ATCC 25923, maximum tested 250 μg/mL, 1:2 dilutions, MHII, 37 °C 24 h, triplicate.
[13] abbreviates: synthetic peptides, P. aeruginosa ATCC 15442, maximum tested 250 μg/mL, 1:2 dilutions, MHII, 37 °C 24 h, triplicate.
The mark [14] stands for this setting: synthetic peptides, E. faecalis ATCC 29212, maximum tested 250 μg/mL, 1:2 dilutions, MHII, 37 °C 24 h, triplicate.
Where [15] appears, read: synthetic peptides, E. coli ATCC 25922, maximum tested 250 μg/mL, 1:2 dilutions, MHII, 37 °C 24 h, triplicate.

This is an account of results in PMC9774249, “A Novel Peptide with Antifungal Activity from Red Swamp Crayfish Procambarus clarkii” (Antibiotics, 2022).

Where two headings read alike, the source gives them in different places. Where no end group is shown, it is not given here.

For FHLVWRAGGTF [Peptide #14d], the MIC is over 250 µg/mL in test [1] (ATCC 25923, 24 h); over 250 µg/mL in test [2] (ATCC 15442, 24 h); 31.2 µg/mL in [3] (ATCC 10231, 24 h); over 250 µg/mL in test [7] (ATCC 29212, 24 h); over 250 µg/mL in [8] (ATCC 25922, 24 h). Moreover, the “membrane integrity (PI uptake, red fluorescence)” value in [4] was “damaged the cell membrane and induced an increase in red fluorescence intensity”. Moreover, in [5], the “biofilm morphology by SEM” value is “evident variations in the morphology, inducing wrinkles and scars”. Besides, the “minimal fungicidal concentration (MFC)” value in [6] turned out to be 62.5 µg/mL. Further, the “BIC50 (biofilm inhibition concentration)” value in test [9] came to 23.2 µg/mL. For the same sequence, in test [10], the “ROS overproduction (DCFH-DA fluorescence)” value is reported as “did not induce ROS overproduction”.

For the sequence YGGYFGNR [Peptide #7], the minimum inhibitory concentration (MIC) is over 250 µg/mL in [1] (ATCC 25923, 24 h); over 250 µg/mL in test [2] (ATCC 15442, 24 h); over 250 µg/mL in test [3] (ATCC 10231, 24 h); over 250 µg/mL in [7] (ATCC 29212, 24 h); over 250 µg/mL in [8] (ATCC 25922, 24 h). Moreover, the “EC50 (concentration to inhibit 50% of the viable bacteria)” value in test [11] was over 100 µg/mL.

In the case of “NWWTGARCKAATLK [Peptide #5d, synthetic derivative of natural peptide #5]”, the MIC in test [1] (setting [12]), in [2] (setting [13]), in test [7] (setting [14]) and in test [8] (setting [15]) was over 250 µg/mL throughout.

With NNWTGADCKAATLK [Peptide #5], the MIC in test [1] (ATCC 25923, 24 h) was over 250 µg/mL; in [2] (ATCC 15442, 24 h), over 250 µg/mL; in [3] (ATCC 10231, 24 h) it was over 250 µg/mL; in test [7] (ATCC 29212, 24 h) it was over 250 µg/mL; in test [8] (ATCC 25922, 24 h), over 250 µg/mL. Also, the “EC50 (concentration to inhibit 50% of the viable bacteria)” value in [11] is over 100 µg/mL.

Take IIIRKGRW [Peptide #3d]: the MIC in [1] (ATCC 25923, 24 h) was over 250 µg/mL; in test [2] (ATCC 15442, 24 h), over 250 µg/mL; in [7] (ATCC 29212, 24 h), over 250 µg/mL; in test [8] (ATCC 25922, 24 h), over 250 µg/mL.

Take FSLVNAVDQTT [Peptide #14]: the MIC in test [1] (ATCC 25923, 24 h) was over 250 µg/mL; in [2] (ATCC 15442, 24 h), over 250 µg/mL; in test [3] (ATCC 10231, 24 h), over 250 µg/mL; in test [7] (ATCC 29212, 24 h), over 250 µg/mL; in [8] (ATCC 25922, 24 h), over 250 µg/mL. The “EC50 (concentration to inhibit 50% of the viable bacteria)” value in test [11] was over 100 µg/mL.

As for SSGYGGYGGGRF [Peptide #3], the minimum inhibitory concentration (MIC) in [1] (setting [12]) was over 250 µg/mL; in [2] (setting [13]), over 250 µg/mL; in test [3] (synthetic peptides, C. albicans ATCC 10231, maximum tested 250 μg/mL, 1:2 dilutions, Sabouraud, 37 °C 24 h, triplicate), over 250 µg/mL; in test [7] (setting [14]) it was over 250 µg/mL; in [8] (setting [15]), over 250 µg/mL. For the same sequence, the “EC50 (concentration to inhibit 50% of the viable bacteria)” value in test [11] was over 100 µg/mL.

In general, MIC refers to the smallest concentration in the dilution series that meets the test's criterion for growth inhibition. A higher MIC goes with weaker potency.
